Data taken from patent US12214092B2, “Systems and methods for treating biological fluids” (Cerus Corporation, priority 2017, dated 2025).

Tested on: platelets
Experiment: Platelet quality, platelets in 100% plasma, amotosalen 30-110 μM, 340 nm device ~7.2 J/cm^2
Description: Multiple donor platelet units in 10000 plasma (5 units, ˜278-391 mL) were pooled and split into 5 units of ˜285 mL each, to be used as an untreated control, or treated with amotosalen at different concentrations, with ultraviolet A illumination using the 340 nm device. Amotosalen was added to a concentration of 30, 60, 90 or 110 μM, then pre-illumination (pre-UV) samples were removed for analysis, and the remainder of the units subjected to illumination at ˜7.2 J/cm^2. Post-illumination (Post-UV) samples were then removed for post-treatment analysis.

Structure (SMILES): Cc1oc2c(C)c3oc(=O)cc(C)c3cc2c1COCCN [S-59, 3-(2-aminoethoxymethyl)-2,5,9-trimethylfuro[3,2-g]chromen-7-one]
- pH at 37° C. (60 μM, Pre-UV): 7.14
- pO2 at 37° C. (60 μM, Pre-UV): 32.7 mm Hg
- Glucose (90 μM, D3): 14.9 mmol/L
- Lactate (90 μM, D3): 7.3 mmol/L
- Platelet counts (90 μM, D3): 1157 x10^3 cells/μL
- Platelet lysis (90 μM, D3): 4.88%
- pCO2 at 37° C. (90 μM, D3): 40.3 mm Hg
- pH at 22° C. (90 μM, D3): 7.39
- pH at 37° C. (90 μM, D3): 7.17
- pO2 at 37° C. (90 μM, D3): 82.2 mm Hg
- Glucose (90 μM, D7): 10.6 mmol/L
- Lactate (90 μM, D7): 13.6 mmol/L
- Platelet counts (90 μM, D7): 1199 x10^3 cells/μL
- Platelet lysis (90 μM, D7): 5.42%
- pCO2 at 37° C. (90 μM, D7): 33.5 mm Hg
- pH at 22° C. (90 μM, D7): 7.23
- pH at 37° C. (90 μM, D7): 7.00
- pO2 at 37° C. (90 μM, D7): 87.9 mm Hg
- Glucose (90 μM, Post-UV): 15.9 mmol/L
- Lactate (90 μM, Post-UV): 5.7 mmol/L
- Platelet counts (90 μM, Post-UV): 1115 x10^3 cells/μL
- Platelet lysis (90 μM, Post-UV): 5.13%
- pCO2 at 37° C. (90 μM, Post-UV): 48.5 mm Hg
- pH at 22° C. (90 μM, Post-UV): 7.37
- pH at 37° C. (90 μM, Post-UV): 7.15
- pO2 at 37° C. (90 μM, Post-UV): 24.1 mm Hg
- Glucose (90 μM, Pre-UV): 15.9 mmol/L
- Lactate (90 μM, Pre-UV): 5.3 mmol/L
- Platelet counts (90 μM, Pre-UV): 1165 x10^3 cells/μL
- Platelet lysis (90 μM, Pre-UV): 4.97%
- pCO2 at 37° C. (90 μM, Pre-UV): 50.8 mm Hg
- pH at 22° C. (90 μM, Pre-UV): 7.37
- pH at 37° C. (90 μM, Pre-UV): 7.14
- pO2 at 37° C. (90 μM, Pre-UV): 54.6 mm Hg
- Glucose (110 μM, D3): 14.7 mmol/L
- LDH (110 μM, D3): 17.0 LDH IU/10^11 platelets
- Lactate (110 μM, D3): 7.3 mmol/L
- Platelet counts (110 μM, D3): 1103 x10^3 cells/μL
- Platelet lysis (110 μM, D3): 5.90%
- pCO2 at 37° C. (110 μM, D3): 38.6 mm Hg
- pH at 22° C. (110 μM, D3): 7.40
- pH at 37° C. (110 μM, D3): 7.18
- pO2 at 37° C. (110 μM, D3): 69.9 mm Hg
- Glucose (110 μM, D7): 10.4 mmol/L
- LDH (110 μM, D7): 16.0 LDH IU/10^11 platelets
- Lactate (110 μM, D7): 13.8 mmol/L
- Platelet counts (110 μM, D7): 1153 x10^3 cells/μL
- Platelet lysis (110 μM, D7): 6.13%
- pCO2 at 37° C. (110 μM, D7): 31.7 mm Hg
- pH at 22° C. (110 μM, D7): 7.24
- pH at 37° C. (110 μM, D7): 7.01
- pO2 at 37° C. (110 μM, D7): 90.5 mm Hg
- Glucose (110 μM, Post-UV): 16.0 mmol/L
- LDH (110 μM, Post-UV): 12.0 LDH IU/10^11 platelets
- Lactate (110 μM, Post-UV): 5.4 mmol/L
- Platelet counts (110 μM, Post-UV): 1239 x10^3 cells/μL
- Platelet lysis (110 μM, Post-UV): 4.63%
- pCO2 at 37° C. (110 μM, Post-UV): 48.1 mm Hg
- pH at 22° C. (110 μM, Post-UV): 7.37
- pH at 37° C. (110 μM, Post-UV): 7.14
- pO2 at 37° C. (110 μM, Post-UV): 189.7 mm Hg
- Glucose (110 μM, Pre-UV): 15.9 mmol/L
- LDH (110 μM, Pre-UV): 12.4 LDH IU/10^11 platelets
- Lactate (110 μM, Pre-UV): 5.3 mmol/L
- Platelet counts (110 μM, Pre-UV): 1209 x10^3 cells/μL
- Platelet lysis (110 μM, Pre-UV): 4.61%
- pCO2 at 37° C. (110 μM, Pre-UV): 51.8 mm Hg
- pH at 22° C. (110 μM, Pre-UV): 7.36
- pH at 37° C. (110 μM, Pre-UV): 7.13
- pO2 at 37° C. (110 μM, Pre-UV): 88.6 mm Hg
